# Data taken from patent US20260256792A1, “TREATMENT OF CHRONIC SPONTANEOUS URTICARIA BY ADMINISTERING (R)-2-[3-[4-AMINO-3-(2-FLUORO-4-PHENOXY-PHENYL)PYRAZOLO[3,4-D]PYRIMIDIN-1-YL]PIPERIDINE-1-CARBONYL]-4-METHYL-4-[4-(OXETAN-3-YL)PIPERAZIN-1-YL]PENT-2-ENENITRILE” (priority 2023, published 2026).
# Tested on: moderate-to-severe chronic spontaneous urticaria (CSU)
# Assay: Phase 2 CSU study: itch severity score over 7 days (ISS7)
# Assay type: in vivo, human
# Conditions: for Non-responder n (%) (ISS7 reduction of 5 points or more) / OR for rilzabrutinib vs. placebo (ISS7 reduction of 5 points or more) / RRD (%) for rilzabrutinib vs. placebo (ISS7 reduction of 5 points or more) / Responder n (%) (ISS7 reduction of 5 points or more) / Imputed non-responder n (%) (ISS7 reduction of 5 points or more): ITT population
# Excerpt: The study comprises a 12 week, randomized, double-blind, placebo-controlled, multi-center, dose-ranging efficacy and safety phase, followed by a 40 week open label extension (OLE) phase (see FIG. 1). The study consists of three phases and an optional OLE phase. […] Clinically, CSU is characterized by the spontaneous and recurrent appearance of pruritic hives. The proposed primary endpoints were the UAS7 at Week 12 in EU and EU reference countries and the ISS7 in the US. Regardless of where a participant was from, all assessments were the same. The UAS7 score is a composite score containing both the HSS7 and the ISS7. This allowed a global assessment of the two key components of urticaria: hives and itch. […] The UAS is a validated PRO measure. […] The daily UAS scores range from 0 to 6 point/day. […] Patients were to complete the UAS using the e-diary. […] The following secondary endpoints were to be analyzed using the same approach as for the primary endpoint: • Change from baseline in UAS7 at Week 4 • Change from baseline in UAS7 at Week 12 (for US and US reference countries) • Change from baseline in ISS7 at Week 12 (except US and US reference countries) • Change from baseline in HSS7 at Week 12
smiles,measurement,setting,value
"CC(C)(C=C(C#N)C(=O)N1CCC[C@@H](n2nc(-c3ccc(Oc4ccccc4)cc3F)c3c(N)ncnc32)C1)N1CCN(C2COC2)CC1 [rilzabrutinib, (R)-2-[3-[4-amino-3-(2-fluoro-4-phenoxy-phenyl)pyrazolo[3,4-d]pyrimidin-1-yl]piperidine-1-carbonyl]-4-methyl-4-[4-(oxetan-3-yl)piperazin-1-yl]pent-2-enenitrile]",Non-responder n (%) (ISS7 reduction of 5 points or more),"400 mg QPM, Week 4",20 (52.6) n (%)
same,OR for rilzabrutinib vs. placebo (ISS7 reduction of 5 points or more),"400 mg QPM, Week 4",1.076
same,RRD (%) for rilzabrutinib vs. placebo (ISS7 reduction of 5 points or more),"400 mg QPM, Week 4",1.7%
same,Responder n (%) (ISS7 reduction of 5 points or more),"400 mg QPM, Week 4",18 (47.4) n (%)
same,Non-responder n (%) (ISS7 reduction of 5 points or more),"400 mg QPM, Week 6",20 (52.6) n (%)
same,OR for rilzabrutinib vs. placebo (ISS7 reduction of 5 points or more),"400 mg QPM, Week 6",1.066
same,RRD (%) for rilzabrutinib vs. placebo (ISS7 reduction of 5 points or more),"400 mg QPM, Week 6",1.5%
same,Responder n (%) (ISS7 reduction of 5 points or more),"400 mg QPM, Week 6",18 (47.4) n (%)
same,Imputed non-responder n (%) (ISS7 reduction of 5 points or more),"400 mg QPM, Week 7",6 (15.8) n (%)
same,Non-responder n (%) (ISS7 reduction of 5 points or more),"400 mg QPM, Week 7",19 (50.0) n (%)
same,OR for rilzabrutinib vs. placebo (ISS7 reduction of 5 points or more),"400 mg QPM, Week 7",1.138
same,RRD (%) for rilzabrutinib vs. placebo (ISS7 reduction of 5 points or more),"400 mg QPM, Week 7",3.1%
same,Responder n (%) (ISS7 reduction of 5 points or more),"400 mg QPM, Week 7",19 (50.0) n (%)
same,Imputed non-responder n (%) (ISS7 reduction of 5 points or more),"400 mg QPM, Week 8",7 (18.4) n (%)
same,Non-responder n (%) (ISS7 reduction of 5 points or more),"400 mg QPM, Week 8",20 (52.6) n (%)
same,OR for rilzabrutinib vs. placebo (ISS7 reduction of 5 points or more),"400 mg QPM, Week 8",0.836
same,RRD (%) for rilzabrutinib vs. placebo (ISS7 reduction of 5 points or more),"400 mg QPM, Week 8",−4.5%
same,Responder n (%) (ISS7 reduction of 5 points or more),"400 mg QPM, Week 8",18 (47.4) n (%)
same,Imputed non-responder n (%) (ISS7 reduction of 5 points or more),"400 mg QPM, Week 9",6 (15.8) n (%)
same,Non-responder n (%) (ISS7 reduction of 5 points or more),"400 mg QPM, Week 9",18 (47.4) n (%)
same,OR for rilzabrutinib vs. placebo (ISS7 reduction of 5 points or more),"400 mg QPM, Week 9",1.294
same,RRD (%) for rilzabrutinib vs. placebo (ISS7 reduction of 5 points or more),"400 mg QPM, Week 9",5.8%
same,Responder n (%) (ISS7 reduction of 5 points or more),"400 mg QPM, Week 9",20 (52.6) n (%)
same,Imputed non-responder n (%) (ISS7 reduction of 5 points or more),"400 mg QPM, Week 10",6 (15.8) n (%)
same,Non-responder n (%) (ISS7 reduction of 5 points or more),"400 mg QPM, Week 10",14 (36.8) n (%)
same,OR for rilzabrutinib vs. placebo (ISS7 reduction of 5 points or more),"400 mg QPM, Week 10",1.593
same,Responder n (%) (ISS7 reduction of 5 points or more),"400 mg QPM, Week 10",24 (63.2) n (%)
same,Imputed non-responder n (%) (ISS7 reduction of 5 points or more),"400 mg QPM, Week 11",7 (18.4) n (%)
same,Non-responder n (%) (ISS7 reduction of 5 points or more),"400 mg QPM, Week 11",17 (44.7) n (%)
same,OR for rilzabrutinib vs. placebo (ISS7 reduction of 5 points or more),"400 mg QPM, Week 11",0.938
same,RRD (%) for rilzabrutinib vs. placebo (ISS7 reduction of 5 points or more),"400 mg QPM, Week 11",−1.5%
same,Responder n (%) (ISS7 reduction of 5 points or more),"400 mg QPM, Week 11",21 (55.3) n (%)
same,Imputed non-responder n (%) (ISS7 reduction of 5 points or more),"400 mg QPM, Week 12",10 (26.3) n (%)
same,Non-responder n (%) (ISS7 reduction of 5 points or more),"400 mg QPM, Week 12",21 (55.3) n (%)
same,OR for rilzabrutinib vs. placebo (ISS7 reduction of 5 points or more),"400 mg QPM, Week 12",0.905
same,RRD (%) for rilzabrutinib vs. placebo (ISS7 reduction of 5 points or more),"400 mg QPM, Week 12",−2.6%
same,Responder n (%) (ISS7 reduction of 5 points or more),"400 mg QPM, Week 12",17 (44.7) n (%)
same,Imputed non-responder n (%) (ISS7 reduction of 5 points or more),"400 mg TID, Week 2",0 n (%)
same,Non-responder n (%) (ISS7 reduction of 5 points or more),"400 mg TID, Week 2",13 (31.7) n (%)
same,OR for rilzabrutinib vs. placebo (ISS7 reduction of 5 points or more),"400 mg TID, Week 2",4.772
same,RRD (%) for rilzabrutinib vs. placebo (ISS7 reduction of 5 points or more),"400 mg TID, Week 2",35.9%
same,Responder n (%) (ISS7 reduction of 5 points or more),"400 mg TID, Week 2",28 (68.3) n (%)
same,Imputed non-responder n (%) (ISS7 reduction of 5 points or more),"400 mg TID, Week 3",0 n (%)
same,Non-responder n (%) (ISS7 reduction of 5 points or more),"400 mg TID, Week 3",12 (29.3) n (%)
same,OR for rilzabrutinib vs. placebo (ISS7 reduction of 5 points or more),"400 mg TID, Week 3",4.110
same,RRD (%) for rilzabrutinib vs. placebo (ISS7 reduction of 5 points or more),"400 mg TID, Week 3",37.3%
same,Responder n (%) (ISS7 reduction of 5 points or more),"400 mg TID, Week 3",29 (70.7) n (%)
same,Imputed non-responder n (%) (ISS7 reduction of 5 points or more),"400 mg TID, Week 4",3 (7.3) n (%)
same,Non-responder n (%) (ISS7 reduction of 5 points or more),"400 mg TID, Week 4",13 (31.7) n (%)
same,OR for rilzabrutinib vs. placebo (ISS7 reduction of 5 points or more),"400 mg TID, Week 4",2.155
same,RRD (%) for rilzabrutinib vs. placebo (ISS7 reduction of 5 points or more),"400 mg TID, Week 4",18.8%
same,Responder n (%) (ISS7 reduction of 5 points or more),"400 mg TID, Week 4",28 (68.3) n (%)
same,Imputed non-responder n (%) (ISS7 reduction of 5 points or more),"400 mg TID, Week 5",3 (7.3) n (%)
same,Non-responder n (%) (ISS7 reduction of 5 points or more),"400 mg TID, Week 5",11 (26.8) n (%)
same,OR for rilzabrutinib vs. placebo (ISS7 reduction of 5 points or more),"400 mg TID, Week 5",2.433
same,RRD (%) for rilzabrutinib vs. placebo (ISS7 reduction of 5 points or more),"400 mg TID, Week 5",20.9%
same,Responder n (%) (ISS7 reduction of 5 points or more),"400 mg TID, Week 5",30 (73.2) n (%)
same,Imputed non-responder n (%) (ISS7 reduction of 5 points or more),"400 mg TID, Week 6",5 (12.2) n (%)
same,Non-responder n (%) (ISS7 reduction of 5 points or more),"400 mg TID, Week 6",16 (39.0) n (%)
same,OR for rilzabrutinib vs. placebo (ISS7 reduction of 5 points or more),"400 mg TID, Week 6",1.574
same,Responder n (%) (ISS7 reduction of 5 points or more),"400 mg TID, Week 6",25 (61.0) n (%)
same,Imputed non-responder n (%) (ISS7 reduction of 5 points or more),"400 mg TID, Week 7",6 (14.6) n (%)
same,Non-responder n (%) (ISS7 reduction of 5 points or more),"400 mg TID, Week 7",14 (34.1) n (%)
same,OR for rilzabrutinib vs. placebo (ISS7 reduction of 5 points or more),"400 mg TID, Week 7",2.038
same,RRD (%) for rilzabrutinib vs. placebo (ISS7 reduction of 5 points or more),"400 mg TID, Week 7",16.8%
same,Responder n (%) (ISS7 reduction of 5 points or more),"400 mg TID, Week 7",27 (65.9) n (%)
same,Imputed non-responder n (%) (ISS7 reduction of 5 points or more),"400 mg TID, Week 8",8 (19.5) n (%)
same,Non-responder n (%) (ISS7 reduction of 5 points or more),"400 mg TID, Week 8",13 (31.7) n (%)
same,OR for rilzabrutinib vs. placebo (ISS7 reduction of 5 points or more),"400 mg TID, Week 8",1.839
same,RRD (%) for rilzabrutinib vs. placebo (ISS7 reduction of 5 points or more),"400 mg TID, Week 8",14.6%
same,Responder n (%) (ISS7 reduction of 5 points or more),"400 mg TID, Week 8",28 (68.3) n (%)
same,Imputed non-responder n (%) (ISS7 reduction of 5 points or more),"400 mg TID, Week 9",7 (17.1) n (%)
same,Non-responder n (%) (ISS7 reduction of 5 points or more),"400 mg TID, Week 9",12 (29.3) n (%)
same,OR for rilzabrutinib vs. placebo (ISS7 reduction of 5 points or more),"400 mg TID, Week 9",2.730
same,RRD (%) for rilzabrutinib vs. placebo (ISS7 reduction of 5 points or more),"400 mg TID, Week 9",22.5%
same,Responder n (%) (ISS7 reduction of 5 points or more),"400 mg TID, Week 9",29 (70.7) n (%)
same,Imputed non-responder n (%) (ISS7 reduction of 5 points or more),"400 mg TID, Week 10",7 (17.1) n (%)
same,Non-responder n (%) (ISS7 reduction of 5 points or more),"400 mg TID, Week 10",14 (34.1) n (%)
same,OR for rilzabrutinib vs. placebo (ISS7 reduction of 5 points or more),"400 mg TID, Week 10",1.669
same,Responder n (%) (ISS7 reduction of 5 points or more),"400 mg TID, Week 10",27 (65.9) n (%)
same,Imputed non-responder n (%) (ISS7 reduction of 5 points or more),"400 mg TID, Week 11",6 (14.6) n (%)
same,Non-responder n (%) (ISS7 reduction of 5 points or more),"400 mg TID, Week 11",12 (29.3) n (%)
same,OR for rilzabrutinib vs. placebo (ISS7 reduction of 5 points or more),"400 mg TID, Week 11",1.699
same,Responder n (%) (ISS7 reduction of 5 points or more),"400 mg TID, Week 11",29 (70.7) n (%)
same,ISS7 % Change difference for rilzabrutinib vs. placebo LS Mean (95% CI),"ITT, 400 mg BID, Week 1",−23.55%
same,ISS7 % Change from baseline LS Mean (SE),"ITT, 400 mg BID, Week 1",−34.02 (5.28) %
same,ISS7 Change difference for rilzabrutinib vs. placebo LS Mean (95% CI),"ITT, 400 mg BID, Week 1",−3.23
same,ISS7 Change from baseline LS Mean (SE),"ITT, 400 mg BID, Week 1",−5.23 (0.78)
same,ISS7 Post-baseline Mean (SD),"ITT, 400 mg BID, Week 1",10.65 (5.86)
same,ISS7 % Change difference for rilzabrutinib vs. placebo LS Mean (95% CI),"ITT, 400 mg BID, Week 2",−16.63%
same,ISS7 % Change from baseline LS Mean (SE),"ITT, 400 mg BID, Week 2",−36.11 (5.26) %
